The structures appear in SMILES notation.

In general, LD50 refers to the dose expected to kill half of the subjects tested. Low values mean a more toxic substance, high ones a less toxic substance.

The test system of one data set is dd strain mice. The note with it: mouse, in vivo, iv.
The nature of a further data set: in vivo. The following applies: mouse, iv.

For the molecule `C[C@@H]1C[C@H]2[C@@H]3CCC4=CC(=O)C=C[C@]4(C)[C@@]3(F)[C@@H](O)C[C@]2(C)[C@@]1(O)C(=O)COP(=O)(O)O` [dexamethasone phosphate], the LD50 with dd strain mice came to 115 mg/kg; in the data set “in vivo” it was 140 mg/kg.

Regarding `CCCCCCCCCCCCCCCC(=O)OCC(=O)[C@@]1(O)[C@H](C)C[C@H]2[C@@H]3CCC4=CC(=O)C=C[C@]4(C)[C@@]3(F)[C@@H](O)C[C@@]21C` [dexamethasone palmitate], the 50% lethal dose (LD50) was determined as 420 mg/kg in the data set with dd strain mice and 580 mg/kg in the data set “in vivo”.

The values are drawn from US4340594A, “Fat emulsion containing steroid” (The Green Cross Corporation, priority 1980, dated 1982).
